Source: patent US20240229066A1 (priority 2020, published 2024)
Peptide text beside a SMILES is read from it. * marks the point of attachment. Cbz = O=C(OCc1ccccc1)*; CHN2 = [N-]=[N+]=C*

Assays:
Type in all cases: cell-based, recombinant vesicular stomatitis virus
[1] = tested on: rVSVs carrying SARS-CoV 2 S
[2] = tested on: rVSVs bearing EBOV GP
[3] = tested on: rVSVs bearing SARS-CoV-2 S

Structure (SMILES) | S-mediated entry (infection scored by eGFP expression) [1] | sensitivity of S-mediated entry relative to EBOV GP-dependent entry [1] | entry by rVSVs bearing EBOV GP (infection scored by eGFP expression) [2] | entry by rVSVs bearing SARS-CoV-2 S (infection scored by eGFP expression) [3] | sensitivity of S-mediated entry compared with entry by EBOV GP [3]
[N-]=[N+]=CC(=O)C(Cc1ccc(O)cc1)NC(=O)C(Cc1ccccc1)NC(=O)OCc1ccccc1 (stereo not drawn) [FYdmk, Z-Phe-tyr-dmk] (Cbz-Phe-Tyr-CHN2; configuration not given here) | inhibited S-mediated entry | reduced sensitivity | – | – | –
Cl.N [NH4Cl] | – | – | reduced entry | reduced entry | comparatively less sensitive
